Measured values reported in patent US5190741A, “Agents for diagnosing and treating melanomas, aromatic halogenated derivatives usable as such agents and their preparation” (Institut National de la Sante et de la Recherche Medicale …, priority 1989, dated 1993).

What was measured:
[1] = LD50 determination, i.v. (Karber and Behrens); conditions: mouse, in vivo, iv
Excerpt: (§1) The determination of the LD50 is made in the mouse after i.v. injection of the molecules according to the methodology described by Karber and Behrens.
(§2) 6 weeks old male nu/nu SSCUP nude mice, […]

[2] = test system: 6 weeks old male nu/nu SSCUP nude mice; test: LD50 determination, i.v. (Karber and Behrens); conditions: mouse, in vivo, iv
Excerpt: as §1, §2

[3] = LD50 determination, i.v. (Karber and Behrens); conditions: mouse, in vivo, iv; remark: listed apart in the source
Excerpt: as §1
(§3) male nu/nu SSCUP nude mice bearing heterotransplants of human melanomas.

[4] = test system: male nu/nu SSCUP nude mice bearing heterotransplants (Beu melanoma); test: LD50 determination, i.v. (Karber and Behrens); conditions: mouse, in vivo, iv
Excerpt: as §1, §3

[5] = test system: EMT6 tumor (spontaneous mammary carcinoma of mice); test: Scintillation imaging (specificity), BALB mice; assay type: in vivo, mouse
Excerpt: (§4) The mice bearing grafted tumors are anesthetized by the i.p. injection of sodium pentobarbital 1/5 and immobilized under a scintillation camera (Gammatome II, CGR) equipped with a pinhole 3-360 collimator, sensitivity 3.2 10^-4.

[6] = test system: A 431 (tumor of the vulva); test: Scintillation imaging (specificity), nu/nu SSCUP nude mice; assay type: in vivo; conditions: after injection of A
Excerpt: as §4

[7] = test system: human and murine melanomas; test: Scintillation imaging in human and murine melanoma models (B16, B16 pulmonary metastases, Beu, Dau, FOSS(ORIS)); assay type: in vivo, human; mouse
Excerpt: The mice bearing grafted tumors are anesthetized by the i.p. injection of sodium pentobarbital 1/5 and immobilized under a scintillation camera (Gammatome II, CGR) equipped with a pinhole 3-360 collimator, sensitivity 3.2 10^-4. […] C57 BL6 bearing pulmonary metastases of B16 melanoma.

[8] = test system: pulmonary colonies of B16 melanoma; test: Autoradiograms, pulmonary metastasing colonies after i.v. B16 cells; assay type: in vivo, mouse; conditions: 1 to 7 hours after injection
Experimental: The autoradiograms are carried out in mice bearing grafted melanomas:
The animals bearing grafted tumors receive the labelled compounds in the form of the hydrochloride in saline solution (3.7 to 5×10^5 Bq/animal) in a caudal vein. At different time intervals after the administration of the compounds (from 15 minutes to 24 hours) the mice are anesthetized with ether and plunged into liquid nitrogen.
30 μm sections, parallel to a sagittal plane, are prepared in a freezing microtome (TS 260, SLEE) according to the protocol described by Ullberg. The sections, dehydrated in the cold, are applied to sensitive films, Ultrofim ^3 H (LKB, 2208-190) or Hyperfilm ^3 H (Amersham, RPN 535).
After the i.v. injection of B16 melanoma cells the appearance of predominantly pulmonary metastasing colonies is noticed.

[9] = test system: Dau amelanic human melanoma; test: Tissue distribution in Swiss nu/nu SSCUP mice bearing Dau; assay type: in vivo
Experimental: The study of the tissue distribution of the ^125 I labelled compounds was performed in mice bearing grafted melanomas (cf. autoradiograms above). […] The animals are sacrificed at different time intervals of 1 to 24 hours after the injection. The blood is collected and the principal organs are excised. Aliquots are weighed and the radioactivity of the samples is measured in a […] 1191 counter (analytic tracer). The counting yield for iodine 125 is 60%. The results are expressed: as a percentage of the injected dose bound per g of tissue (% ID/g); in the form of the ratios [formula] This ratio reflects more precisely the selectivity of a molecule for an organ (tables 2, 4, 6, 8, 10 and 12).

Structure (SMILES): CCN(CC)CCNC(=O)c1ccc(I)cc1 [Derivative A, N-(2-diethylaminoethyl) 4-iodo benzamide]
- LD50 [1]: 90 mg/kg
- LD 0 [2]: 60 mg/kg
- LD 100 [2]: 150 mg/kg
- LD50 [3]: 90 mg/kg
- LD 0 [4]: 60 mg/kg
- LD 100 [4]: 150 mg/kg
- tumor image ([5]; ^123 I label): absence of images
- tumor image ([5]; after injection of A): not obtained any image
- tumor image [6]: not obtained any image
- tumoral definition in scintillation images ([7]; ^125 I and ^123 I-A, i.v.): good tumoral definition
- early images ([7]; considerable intraabdominal and pulmonary radioactivity): more difficult to interpret
- quality of tumor images ([7]; from 4 h): good quality
- intratumoral necrosis zones ([7]; in vivo): not visualized
- size of human melanoma imaged ([7]; in vivo): less than 5 mm

Structure (SMILES): CCNCCNC(=O)c1ccc(I)cc1 [Derivative B, N-(2-ethylaminoethyl) 4-iodo benzamide]
- visualization of pulmonary colonies [8]: readily visualized
- intratumoral concentrations compared with A ([9]; 4 to 6 h, Dau): slightly higher
- brain/blood ratio ([9]; 1 h): 1,44 ± 0,069
- eye/blood ratio ([9]; 1 h): 0,57 ± 0,011
- intestine/blood ratio ([9]; 1 h): 3,44 ± 0,231
- kidney/blood ratio ([9]; 1 h): 9,10 ± 0,286
- liver/blood ratio ([9]; 1 h): 5,56 ± 0,225
- lungs/blood ratio ([9]; 1 h): 6 ± 0,353
- muscle/blood ratio ([9]; 1 h): 1,17 ± 0,040
- pancreas/blood ratio ([9]; 1 h): 3,20 ± 0,099
- plasma/blood ratio ([9]; 1 h): 0,80 ± 0,017
- spleen/blood ratio ([9]; 1 h): 2,84 ± 0,091
- stomach/blood ratio ([9]; 1 h): 2,66 ± 0,101
- submaxillary glands/blood ratio ([9]; 1 h): 4,82 ± 0,285
- tumor/blood ratio ([9]; 1 h): 1,33 ± 0,015
- brain/blood ratio ([9]; 2 h): 1,43 ± 0,261
- eye/blood ratio ([9]; 2 h): 0,55 ± 0,052
- intestine/blood ratio ([9]; 2 h): 2,87 ± 0,34
- kidney/blood ratio ([9]; 2 h): 7,00 ± 1,03
- liver/blood ratio ([9]; 2 h): 3,62 ± 0,68
- lungs/blood ratio ([9]; 2 h): 6,33 ± 1,166
- muscle/blood ratio ([9]; 2 h): 0,98 ± 0,182
- pancreas/blood ratio ([9]; 2 h): 2,42 ± 0,36
- plasma/blood ratio ([9]; 2 h): 0,89 ± 0,068
- spleen/blood ratio ([9]; 2 h): 2,31 ± 0,36
- stomach/blood ratio ([9]; 2 h): 3,40 ± 0,694
- submaxillary glands/blood ratio ([9]; 2 h): 4,48 ± 0,220
- tumor/blood ratio ([9]; 2 h): 1,39 ± 0,103
- brain/blood ratio ([9]; 4 h): 2,21 ± 0,304
- eye/blood ratio ([9]; 4 h): 0,71 ± 0,056
- intestine/blood ratio ([9]; 4 h): 4,08 ± 0,599
- kidney/blood ratio ([9]; 4 h): 8,03 ± 0,813
- liver/blood ratio ([9]; 4 h): 5,21 ± 0,519
- lungs/blood ratio ([9]; 4 h): 8,77 ± 0,838
- muscle/blood ratio ([9]; 4 h): 1,24 ± 0,153
- pancreas/blood ratio ([9]; 4 h): 2,70 ± 0,300
- plasma/blood ratio ([9]; 4 h): 0,94 ± 0,058
- spleen/blood ratio ([9]; 4 h): 2,07 ± 0,256
- stomach/blood ratio ([9]; 4 h): 4,34 ± 0,924
- submaxillary glands/blood ratio ([9]; 4 h): 5,44 ± 0,297
- tumor/blood ratio ([9]; 4 h): 2,68 ± 0,757
- brain/blood ratio ([9]; 6 h): 0,44 ± 0,060
- eye/blood ratio ([9]; 6 h): 0,36 ± 0,023
- intestine/blood ratio ([9]; 6 h): 1,97 ± 0,112
- kidney/blood ratio ([9]; 6 h): 2,01 ± 0,252
- liver/blood ratio ([9]; 6 h): 1,43 ± 0,439
- lungs/blood ratio ([9]; 6 h): 1,82 ± 0,187
- muscle/blood ratio ([9]; 6 h): 0,24 ± 0,056
- pancreas/blood ratio ([9]; 6 h): 0,76 ± 0,050
- plasma/blood ratio ([9]; 6 h): 1,16 ± 0,016
- spleen/blood ratio ([9]; 6 h): 0,62 ± 0,045
- stomach/blood ratio ([9]; 6 h): 3,78 ± 0,400
- submaxillary glands/blood ratio ([9]; 6 h): 5,16 ± 0,853
- tumor/blood ratio ([9]; 6 h): 0,65 ± 0,025
- brain/blood ratio ([9]; 8 h): 1,31 ± 0,180
- eye/blood ratio ([9]; 8 h): 0,60 ± 0,040
- intestine/blood ratio ([9]; 8 h): 3,30 ± 0,269
- kidney/blood ratio ([9]; 8 h): 3,72 ± 0,573
- liver/blood ratio ([9]; 8 h): 6,03 ± 0,678
- lungs/blood ratio ([9]; 8 h): 3,69 ± 0,585
- muscle/blood ratio ([9]; 8 h): 0,74 ± 0,216
- pancreas/blood ratio ([9]; 8 h): 1,22 ± 0,151
- plasma/blood ratio ([9]; 8 h): 0,19 ± 0,020
- spleen/blood ratio ([9]; 8 h): 1,28 ± 0,158
- stomach/blood ratio ([9]; 8 h): 5,35 ± 0,355
- submaxillary glands/blood ratio ([9]; 8 h): 3,65 ± 0,266
- tumor/blood ratio ([9]; 8 h): 1,17 ± 0,314
- brain/blood ratio ([9]; 12 h): 0,74 ± 0,072
- eye/blood ratio ([9]; 12 h): 0,88 ± 0,081
- intestine/blood ratio ([9]; 12 h): 3,20 ± 0,502
- kidney/blood ratio ([9]; 12 h): 5,46 ± 0,217
- liver/blood ratio ([9]; 12 h): 13,34 ± 0,462
- lungs/blood ratio ([9]; 12 h): 3,04 ± 0,401
- muscle/blood ratio ([9]; 12 h): 0,45 ± 0,111
- pancreas/blood ratio ([9]; 12 h): 5 ± 0,310
- plasma/blood ratio ([9]; 12 h): 0,16 ± 0,037
- spleen/blood ratio ([9]; 12 h): 3,68 ± 0,493
- stomach/blood ratio ([9]; 12 h): 7,03 ± 0,728
- submaxillary glands/blood ratio ([9]; 12 h): 2,52 ± 0,236
- tumor/blood ratio ([9]; 12 h): 1,11 ± 0,059
- brain/blood ratio ([9]; 24 h): 0,22 ± 0,029
- eye/blood ratio ([9]; 24 h): 0,94 ± 0,213
- intestine/blood ratio ([9]; 24 h): 1,16 ± 0,141
- kidney/blood ratio ([9]; 24 h): 4,64 ± 0,328
- liver/blood ratio ([9]; 24 h): 21,88 ± 1,493
- lungs/blood ratio ([9]; 24 h): 1,72 ± 0,182
- muscle/blood ratio ([9]; 24 h): 0,27 ± 0,043
- pancreas/blood ratio ([9]; 24 h): 1,40 ± 0,120
- plasma/blood ratio ([9]; 24 h): 1,07 ± 0,154
- spleen/blood ratio ([9]; 24 h): 11,17 ± 1,75
- stomach/blood ratio ([9]; 24 h): 2,28 ± 0,165
- submaxillary glands/blood ratio ([9]; 24 h): 1,81 ± 0,169
- tumor/blood ratio ([9]; 24 h): 0,79 ± 0,092
- tumor/blood ratios compared with A ([9]; Dau): not significantly different
